Test system: DOHH2 and TMD8 DLBCL cells
Experiment: Gene expression profiling (HumanHT-12 v4 BeadChip, limma), ST7612AA1 300 nM 8 hrs vs DMSO
Type: cell-based, human
Settings: 300 nM 8 hrs vs DMSO

## CC(=O)SCCCCC[C@H](NC(=O)[C@H]1CCC(=O)N1)C(=O)Nc1ccccc1 [ST7612AA1]
  log ratio ESAM (probe ILMN_1668092): 7.54E-01
  log ratio EVI2A (ILMN_1733579): -1.21E+00
  log ratio EXOSC8 (ILMN_1756162): -8.59E-01
  log ratio EXTL2 (ILMN_2388425): 6.00E-01
  log ratio F11R (probe ILMN_2342033): 8.81E-01
  log ratio FAIM (ILMN_1690101): -1.08E+00
  log ratio FAIM (ILMN_2351548): -9.70E-01
  log ratio FAM49A (ILMN_1794038): 6.23E-01
  log ratio FAM65A (probe ILMN_1680037): 7.70E-01
  log ratio FAM108A2 (ILMN_3178529): 6.40E-01
  log ratio FAM110A (ILMN_2323944): 6.14E-01
  log ratio FAM116B (probe ILMN_1659029): 7.74E-01
  log ratio FAM120B (probe ILMN_1679641): 7.62E-01
  log ratio FAM136A (ILMN_1655307): -1.26E+00
  log ratio FAM136B (ILMN_3241756): -7.94E-01
  log ratio FAM149B1 (probe ILMN_3245452): 7.21E-01
  log ratio FAM160B1 (ILMN_3231638): -6.11E-01
  log ratio FAM164A (ILMN_1789558): 6.20E-01
  log ratio FAM167A (probe ILMN_3248511): 7.13E-01
  log ratio FBXO15 (ILMN_1755281): 6.57E-01
  log ratio FBXO18 (probe ILMN_1729430): 7.97E-01
  log ratio FCGRT (probe ILMN_1705302): 6.92E-01
  log ratio FCHSD2 (ILMN_1815734): -6.17E-01
  log ratio FERMT3 (ILMN_2366330): -1.23E+00
  log ratio FGD2 (probe ILMN_2115005): 7.14E-01
  log ratio FGF9 (probe ILMN_1762531): 7.84E-01
  log ratio FHL1 (probe ILMN_1805842): 7.76E-01
  log ratio FKBP11 (ILMN_1787345): -9.71E-01
  log ratio FLJ22795 (probe ILMN_2150802): 8.56E-01
  log ratio FNBP1 (ILMN_1797342): 6.67E-01
  log ratio FOXC1 (probe ILMN_1738401): 8.63E-01
  log ratio FOXO1 (probe ILMN_1738816): 8.61E-01
  log ratio FOXO4 (probe ILMN_1712095): 6.93E-01
  log ratio FSD1 (probe ILMN_1813490): 7.25E-01
  log ratio FUCA1 (probe ILMN_1752728): 8.57E-01
  log ratio FVT1 (ILMN_2154052): 6.36E-01
  log ratio FXYD5 (ILMN_2309848): 6.27E-01
  log ratio G6PD (probe ILMN_1697559): 6.93E-01
  log ratio GABARAPL2 (probe ILMN_1796458): 7.62E-01
  log ratio GAMT (probe ILMN_1756469): 8.74E-01
  log ratio GAPT (ILMN_1675191): -1.10E+00
  log ratio GAPT (ILMN_3242271): -1.08E+00
  log ratio GAR1 (ILMN_2412549): -9.54E-01
  log ratio GAR1 (ILMN_3263329): -9.36E-01
  log ratio GATM (probe ILMN_1729180): 7.75E-01
  log ratio GATS (ILMN_1699631): 6.00E-01
  log ratio GBE1 (ILMN_1789702): -8.91E-01
  log ratio GCDH (ILMN_2296843): 6.56E-01
  log ratio GCH1 (probe ILMN_1812759): 7.11E-01
  log ratio GINS3 (ILMN_1754272): -8.17E-01
  log ratio GM2A (ILMN_2221046): 5.90E-01
  log ratio GMEB2 (ILMN_1683204): -5.99E-01
  log ratio GNG11 (ILMN_1782419): 6.02E-01
  log ratio GOLGB1 (probe ILMN_1747935): 7.13E-01
  log ratio GPATCH4 (ILMN_2383305): -1.16E+00
  log ratio GPATCH4 (ILMN_2383306): -1.12E+00
  log ratio GPER (ILMN_1795298): -1.70E+00
  log ratio GPER (ILMN_2384056): -1.82E+00
  log ratio GPT2 (probe ILMN_1684158): 8.12E-01
  log ratio GPX4 (ILMN_1734353): 6.05E-01
  log ratio GPX7 (ILMN_1726030): -1.08E+00
  log ratio GRB2 (ILMN_1748797): 6.01E-01
  log ratio GRN (probe ILMN_1724250): 8.24E-01
  log ratio GRWD1 (ILMN_1742166): -6.02E-01
  log ratio GSDMB (ILMN_2347193): 6.61E-01
  log ratio GSTO1 (ILMN_2227573): -6.01E-01
  log ratio GTF2B (ILMN_1737857): 6.21E-01
  log ratio GTF2I (ILMN_1673917): -1.01E+00
  log ratio GTF2IRD2B (ILMN_1680501): -1.15E+00
  log ratio GTF3C2 (ILMN_1746457): -7.85E-01
  log ratio GTF3C6 (ILMN_1691578): -1.19E+00
  log ratio GTPBP6 (ILMN_1776080): -8.00E-01
  log ratio HABP4 (ILMN_1792384): 5.90E-01
  log ratio HABP4 (probe ILMN_2107991): 7.82E-01
  log ratio HAGH (probe ILMN_1772731): 8.84E-01
  log ratio HCFC1 (ILMN_1732705): -1.50E+00
  log ratio HDDC2 (ILMN_1753745): -8.45E-01
  log ratio HDGF (ILMN_1765621): -8.47E-01
  log ratio HERC1 (probe ILMN_1786211): 7.40E-01
  log ratio HERC6 (ILMN_1654639): -6.08E-01
  log ratio HERPUD1 (probe ILMN_2374159): 8.50E-01
  log ratio HEY1 (probe ILMN_1788203): 8.91E-01
  log ratio HEY2 (probe ILMN_1682034): 7.56E-01
  log ratio HIST1H1C (probe ILMN_1757406): 8.24E-01
  log ratio HIST2H2AA3 (probe ILMN_2144426): 8.03E-01
  log ratio HK2 (ILMN_1723486): -1.09E+00
  log ratio HLA-DOA (ILMN_1659075): 6.55E-01
  log ratio HLA-DPA1 (probe ILMN_1772218): 8.12E-01
  log ratio HLA-DQA1 (probe ILMN_1808405): 8.25E-01
  log ratio HLA-DRB4 (probe ILMN_1752592): 7.27E-01
  log ratio HLA-DRB6 (ILMN_2066066): 5.94E-01
  log ratio HLA-E (probe ILMN_1765258): 8.07E-01
  log ratio HLTF (ILMN_1798588): 6.54E-01
  log ratio HLTF (probe ILMN_1673820): 7.48E-01
  log ratio HNRNPR (ILMN_3177285): -5.97E-01
  log ratio HNRPH3 (ILMN_1654920): -7.98E-01
  log ratio HNRPLL (ILMN_1791575): 6.20E-01
  log ratio HOOK2 (probe ILMN_1682147): 7.36E-01
  log ratio HPSE (ILMN_1779547): 5.94E-01
  log ratio HSD17B8 (ILMN_1715324): 6.72E-01
  log ratio HSPA1B (probe ILMN_1660436): 7.16E-01
  log ratio HSPC111 (ILMN_1704055): -1.16E+00
  log ratio ID1 (probe ILMN_1664861): 7.75E-01
  log ratio IFFO1 (probe ILMN_2348268): 8.07E-01
  log ratio IFI16 (ILMN_1710937): -9.06E-01
  log ratio IFI35 (ILMN_1745374): -8.00E-01
  log ratio IFRD2 (ILMN_1742031): -7.99E-01
  log ratio IGSF3 (probe ILMN_1704353): 8.50E-01
  log ratio INTS10 (ILMN_1679483): -8.21E-01
  log ratio IRAK1 (ILMN_2379130): -1.37E+00
  log ratio IRAK2 (ILMN_1745964): 6.17E-01
  log ratio ISG20L1 (ILMN_1814282): -8.55E-01
  log ratio ISOC2 (ILMN_1769158): -9.83E-01
  log ratio ITFG2 (ILMN_1701244): -8.71E-01
  log ratio ITFG3 (ILMN_1810055): 6.64E-01
  log ratio ITGA4 (ILMN_1747052): -6.00E-01
  log ratio ITGB1 (ILMN_1723467): 6.32E-01
  log ratio ITGB1 (ILMN_2383934): 6.80E-01
  log ratio ITGB1 (probe ILMN_1714820): 7.06E-01
  log ratio ITPKA (probe ILMN_1776516): 7.10E-01
  log ratio JAK1 (probe ILMN_1793384): 7.91E-01
  log ratio KAT2A (ILMN_1782247): -6.02E-01
  log ratio KBTBD2 (ILMN_1784540): -6.12E-01
  log ratio KEAP1 (ILMN_2410771): -8.88E-01
  log ratio KEAP1 (ILMN_2410772): -9.23E-01
  log ratio KIAA0020 (ILMN_1665483): -7.91E-01
  log ratio KIAA0368 (ILMN_1847822): -1.24E+00
  log ratio KIAA1602 (ILMN_1763640): 6.30E-01
  log ratio KIF3B (ILMN_1702279): 6.21E-01
  log ratio KIFC2 (ILMN_1803018): 6.72E-01
  log ratio KLF9 (ILMN_1778523): 6.77E-01
  log ratio KLHDC5 (ILMN_1727134): -1.09E+00
  log ratio KLHL5 (probe ILMN_1706687): 8.05E-01
  log ratio KLRAQ1 (probe ILMN_3271092): 7.11E-01
  log ratio KPNB1 (ILMN_1703949): -1.01E+00
  log ratio L3MBTL2 (ILMN_3307786): -8.52E-01
  log ratio LAMC1 (ILMN_1810852): 6.63E-01
  log ratio LANCL2 (ILMN_1708009): -8.15E-01
  log ratio LARP1B (ILMN_1733390): -7.84E-01
  log ratio LASS2 (ILMN_1726108): -7.85E-01
  log ratio LASS2 (ILMN_2400500): -9.26E-01
  log ratio LCMT1 (probe ILMN_1688452): 7.21E-01
  log ratio LCMT1 (probe ILMN_2336186): 7.52E-01
  log ratio LIN9 (ILMN_2137084): -6.10E-01
  log ratio LMNA (probe ILMN_1737394): 7.98E-01
  log ratio LOC151162 (probe ILMN_3238058): 7.72E-01
  log ratio LOC205251 (ILMN_1693685): -6.17E-01
  log ratio LOC253039 (probe ILMN_3236498): 8.10E-01
  log ratio LOC283683 (probe ILMN_1659327): 8.30E-01
  log ratio LOC285176 (ILMN_1694327): -5.99E-01

Source: article PMC4467398, “Preclinical antitumor activity of ST7612AA1: a new oral thiol-based histone deacetylase (HDAC) inhibitor” (Oncotarget, 2014)
